Data: paper PMC10292217, “Gene-nutrient interactions that impact magnesium homeostasis increase risk for neural tube defects in mice exposed to dolutegravir” (Frontiers in Cell and Developmental Biology, 2023)
Read-outs that look alike come from different tables or passages of the source.

Assays:
[1] = Plasma DTG pharmacokinetics (LC-MS/MS, NCA) in LM/Bc mice; type: in vivo, mouse; conditions: for Tmax / half-life / Cmax / AUC(0-t): female, mouse, plasma; for half-life: read-out: t½ (converted); for Cmax / AUC(0-t): high Mg2+ soy diet; for AUC(0-t): read-out: AUC 0-24
Protocol: Baseline blood samples were collected via cheek bleed (submandibular vein) from all animals prior to timed matings, and again on GD 9.5. A Goldenrod sterile lancet (MEDIpoint, Inc., Mineola, NY) was used to lance the submandibular vein, and 3-4 drops (∼100 µL) of blood was collected into a Microvette CB 300 Lithium Heparin plasma separator tube (SARSTEDT AG and Co., Germany) and then centrifuged at 2000 g for 8 min. Plasma samples were frozen at −80 °C for LCMS analysis of DTG or ICP-MS determination of cations. DTG detection and quantification was performed at Creighton University using a previously published method ([Bennetto-Hood et al., 2014]) with minor modifications. Briefly, a seven-point calibration curve ranging from 0.1 to 100 μg/mL was challenged with quality control vials at known concentrations of 5, 20, and 80 μg/mL. All controls and calibrators with known drug concentrations were added to DTG-free mouse plasma. To initiate protein precipitation, 120 µL of acetonitrile containing 10 ng/mL of d5- DTG internal standard (Cayman Chemical, Ann Arbor, MI) was added to 20 µL mouse plasma (calibrators, controls, unknown samples), and mixed for 2 min on an orbital shaker (1500 rpm), followed by centrifugation at 2,655 g for 5 min. […] LC-MSMS separation was achieved using Agilent 1200 liquid chromatography devices and an AB Sciex 3200 Q-Trap mass spectrometer. The mobile phase consisted of an isocratic gradient of 0.1% formic acid in water:0.1% formic acid in acetonitrile (60:40) with a flow rate of 0.475 mL/min across an XBridge C18 column (Waters, Milford, MA, United States). […] Strains and treatments were compared by 2-way ANOVA followed by post hoc analyses. Pairwise comparisons of the proportion of affected embryos in each litter between strains and treatments were evaluated by the Fisher least significant difference method. Index value pairwise comparisons were evaluated using the Kruskal–Wallis nonparametric test in Sigma XL (v9.0). Comparisons of cation levels in urine and plasma between strains and between diets as well as the effect of DTG on the incidence of NTDs in LM/Bc dams was performed by one-way ANOVA followed by Dunnett’s multiple comparisons test using GraphPad Prism version 9.5.0 for Windows. The level of significance p < 0.05 was used for all analyses. DTG pharmacokinetics were evaluated by noncompartmental analysis (NCA) using PKsolver ([Zhang et al., 2010]).

[2] = cited from earlier work
[3] = ref Zash et al., cited from earlier work
[4] = tested on: C3H/HeJ mice; set-up: method as in Bade et al., 2021; conditions: 50 mg/kg/d DTG oral gavage from GD 0.5; 1 NTD affected pup in 17 litters; ref Bade et al., 2021; cited from earlier work
[5] = tested on: Madin-Darby canine kidney II cells; set-up: method as in Zamek-Gliszczynski et al., 2019; conditions: ref Zamek-Gliszczynski et al., 2019; cited from earlier work
[6] = tested on: FOLR1; set-up: method as in Gilmore et al., 2022; conditions: human choriocarcinoma cells; ref Gilmore et al., 2022; cited from earlier work
[7] = tested on: human embryonic stem cell (hESC) lines; set-up: method as in Smith et al., 2022; conditions: 2 different hESC lines; ref Smith et al., 2022; cited from earlier work
[8] = tested on: hESC morphogenesis model; set-up: method as in Kirkwood-Johnson et al., 2021; conditions: ref Kirkwood-Johnson et al., 2021; cited from earlier work
[9] = tested on: P19C5 mouse embryonal carcinoma cell; set-up: method as in Kirkwood-Johnson et al., 2021; conditions: exposure within the first 1-2 days; ref Kirkwood-Johnson et al., 2021; cited from earlier work
[10] = tested on: rats; conditions: 2020, cited from earlier work
[11] = tested on: rabbits; conditions: 2020, cited from earlier work
[12] = tested on: zebrafish embryos; conditions: exposure initiated at 3 h post-fertilization; ref Cabrera et al., 2019; cited from earlier work
[13] = 750 mg/kg/day, pregnant LM/Bc mice, 10 daily oral doses DTG750
[14] = 750 mg/kg/day, pregnant LM/Bc mice, 10 daily oral doses DTG750 GD 0.5-GD 9.5
[15] = 750 mg/kg, non-pregnant LM/Bc mice, single oral dose DTG750
[16] = non-pregnant LM/Bc mice, single oral dose DTG 750 mg/kg
[17] = non-pregnant mouse single dose DTG750 vs human 50 mg single dose
[18] = non-pregnant mouse single dose DTG750 vs human 100 mg single dose
[19] = non-pregnant mouse single dose DTG750 vs human 100 mg × 7d
[20] = pregnant mouse 10 daily doses DTG750 vs pregnant women 2nd trimester 50 mg/d
[21] = human, non-pregnant, 50 mg single dose, ref Min et al., 2010
[22] = human, non-pregnant, 100 mg single dose, ref Min et al., 2010
[23] = human, non-pregnant, 100 mg × 7d, ref Wang et al., 2019
[24] = pregnant women, 2nd trimester, 50 mg/d, ref Mulligan et al., 2018
[25] = preclinical studies, ref Stanislaus et al.

SMILES: C[C@@H]1CCO[C@H]2Cn3cc(C(=O)NCc4ccc(F)cc4F)c(=O)c(O)c3C(=O)N12 [DTG, Dolutegravir]
- Tmax [1, 13]: 2 h
- half-life [1, 13]: 4.4 h
- Cmax [1, 14]: 128 µg/mL
- AUC(0-t) [1, 14]: 847 µg·h/mL
- Tmax [1, 15]: 2 h
- half-life [1, 15]: 6.3 h
- Cmax [1, 16]: 133 µg/mL
- AUC(0-t) [1, 16]: 1300 µg·h/mL
- AUC 0-24, mouse multiplication factor vs human [1, 17]: 18.4 x
- Cmax, mouse multiplication factor vs human [1, 17]: 28.9 x
- AUC 0-24, mouse multiplication factor vs human [1, 18]: 9.9 x
- Cmax, mouse multiplication factor vs human [1, 18]: 16.4 x
- AUC 0-24, mouse multiplication factor vs human [1, 19]: 14.1 x
- Cmax, mouse multiplication factor vs human [1, 19]: 19.8 x
- AUC 0-24, mouse multiplication factor vs human [1, 20]: 17.8 x
- Cmax, mouse multiplication factor vs human [1, 20]: 35.3 x
- AUC 0-24 [2, 21]: 70.8 (50 mg single dose) ^1 µg*h/mL
- Cmax [2, 21]: 4.6 (50 mg single dose) ^1 µg/mL
- Tmax [2, 21]: 1.25 h (50 mg single dose) ^1
- t½ [2, 21]: 13–14 h (50 mg single dose) ^1
- AUC 0-24 [2, 22]: 131 (100 mg single dose) ^1 µg*h/mL
- Cmax [2, 22]: 8.1 (100 mg single dose) ^1 µg/mL
- AUC 0-24 [2, 23]: 92.3 (100 mg × 7d) ^2 µg*h/mL
- Cmax [2, 23]: 6.7 (100 mg × 7d) ^2 µg/mL
- AUC 0-24 [2, 24]: 47.6 (33.4–63.7) (2nd trimester, 50 mg/d) ^3 µg*h/mL
- Cmax [2, 24]: 3.62 (2.57–4.63) µg/mL
- Tmax [2, 24]: 2 h (2nd trimester, 50 mg/d) ^3
- t½ [2, 24]: 11 h (2nd trimester, 50 mg/d) ^3
- NTD prevalence ([3]; 4/426 infants exposed to DTG from conception, 2018): .94%
- prevalence of DTG-NTDs ([3]; follow-up study, 5/1683 deliveries, 2019): .30%
- increase in the prevalence of NTDs ([3]; women who began DTG prior to conception, 2018): 9 fold
- NTD-affected litters [4]: 5.8%
- effect on inhibition of folate transport [5]: did not find a significant DTG or INSTI class effect
- FOLR1-mediated uptake [6]: reduced
- effect on hESC [7]: cytotoxicity and a dose-dependent loss of pluripotency
- effect on 3D morphogenesis [8]: altered growth and expression of genes involved in body patterning
- growth and axial elongation [9]: concentration-dependent inhibition of growth and axial elongation
- DTG-related maternal or developmental toxicity ([10]; oral doses up to 1000 mg/kg/d, GD 6 to GD 17, ref Stanislaus et al.): no significant evidence
- NOAEL [10, 25]: 1000 mg/kg/day
- DTG-related maternal or developmental toxicity ([11]; oral doses up to 1000 mg/kg/d, GD 6 to GD 18, ref Stanislaus et al.): no significant evidence
- NOAEL [11, 25]: 1000 mg/kg/day
- mortality [12]: Significant mortality
